Entries after “also recorded” stand apart in the source; their conditions may differ. Read-outs that look alike come from different tables or passages of the source. Values belong to the molecule of their own block, whether it stands above or below them.
Tests used:
[1] = system: angiotensin; assay: In-vitro angiotensin inhibitory activity; format: biochemical; details: for Percent Inhibition (angiotensin inhibitory activity): in vitro; for angiotensin inhibitory activity (in words): general pharmacological screening
[2] = In-vivo (P.O.) anti-ulcer stress activity; details: for anti-ulcer stress Activity: P.O.; for anti-ulcer stressic activity (in words): general pharmacological screening
[3] = system: LTD4; assay: LTD4 antagonistic activity (general pharmacological screening)
[4] = biological target: T1, calcium channel (Cavia porcellus, UniProt O35505); assay: Calcium channel antagonist activity: inhibition of muscarinic receptor-mediated Ca2+-dependent contraction (carbachol) of guinea pig ileal longitudinal smooth muscle; format: cell-based; details: for relative potency as compared with Nifedipine: Nifedipine = reference
T1 construct: Longitudinal smooth muscle segments of 2 cm length were mounted under a resting tension; from tissue; host or cells: ileal longitudinal smooth muscle segments of male albino guinea pigs
Experimental: Male albino guinea pigs (body weight 300-450 g) were sacrificed by decapitation. The intestine was removed above the ileo-caecal junction. Longitudinal smooth muscle segments of 2 cm length were mounted under a resting tension of 300-400 mg. […] The muscles were equilibrated for 1 h with a solution change every 15 min. Two successive control contractions were elicited at 15 min. intervals with 5×10^-7 M carbachol. The isometric contractions were recorded with a force displacement transducer (FT 03C) on a GRASS* physiograph. The means of the […] contractile responses was taken as the 100% value for the tonic (slow) component of the response. The muscle was washed with Hepes saline solution and was allowed to re-equilibrate. The calcium antagonist (test compound) was added ten min before the dose-response for carbachol was determined. The drug-induced inhibition of contraction was expressed as percent of control. The ID50 values were graphically determined from the concentration-response curves, in triplicate.

[5] = In-vivo (P.O.) anti-inflammatory activity; details: for anti-inflammatory Activity: P.O.
[6] = system: heart muscle; assay: Ionotropic effect on heart muscle; details: for heart contractile force: at concentrations which exhibit Ca-blocking effect in smooth muscles; for positive ionotropic effect on the heart: in the same concentration as on smooth muscle; for activation at 0.00325 µM: same concentration as smooth muscle relaxant (Compound 11: 3.25×10^-9 M), Compound 19 in the same condition, read-out: positive ionotropic effect on heart muscle
[7] = system: SHR Rat; assay: Blood pressure and heart rate in SHR Rat; format: in vivo; details: 0.2 mg/Kg
[8] = system: heart; assay: Effect on heart rate
[9] = system: heart; details: J. Cardiovascular Pharmacology, 1987, 10 (Suppl. 1) S60-S65; cited from earlier work
[10] = guinea pig ileal longitudinal smooth muscle, carbachol, 37° C., triplicate, read-out: calcium channel antagonist act., inhib. act. on contractile response to CD ID50

T1 sequence (O35505 whole entry): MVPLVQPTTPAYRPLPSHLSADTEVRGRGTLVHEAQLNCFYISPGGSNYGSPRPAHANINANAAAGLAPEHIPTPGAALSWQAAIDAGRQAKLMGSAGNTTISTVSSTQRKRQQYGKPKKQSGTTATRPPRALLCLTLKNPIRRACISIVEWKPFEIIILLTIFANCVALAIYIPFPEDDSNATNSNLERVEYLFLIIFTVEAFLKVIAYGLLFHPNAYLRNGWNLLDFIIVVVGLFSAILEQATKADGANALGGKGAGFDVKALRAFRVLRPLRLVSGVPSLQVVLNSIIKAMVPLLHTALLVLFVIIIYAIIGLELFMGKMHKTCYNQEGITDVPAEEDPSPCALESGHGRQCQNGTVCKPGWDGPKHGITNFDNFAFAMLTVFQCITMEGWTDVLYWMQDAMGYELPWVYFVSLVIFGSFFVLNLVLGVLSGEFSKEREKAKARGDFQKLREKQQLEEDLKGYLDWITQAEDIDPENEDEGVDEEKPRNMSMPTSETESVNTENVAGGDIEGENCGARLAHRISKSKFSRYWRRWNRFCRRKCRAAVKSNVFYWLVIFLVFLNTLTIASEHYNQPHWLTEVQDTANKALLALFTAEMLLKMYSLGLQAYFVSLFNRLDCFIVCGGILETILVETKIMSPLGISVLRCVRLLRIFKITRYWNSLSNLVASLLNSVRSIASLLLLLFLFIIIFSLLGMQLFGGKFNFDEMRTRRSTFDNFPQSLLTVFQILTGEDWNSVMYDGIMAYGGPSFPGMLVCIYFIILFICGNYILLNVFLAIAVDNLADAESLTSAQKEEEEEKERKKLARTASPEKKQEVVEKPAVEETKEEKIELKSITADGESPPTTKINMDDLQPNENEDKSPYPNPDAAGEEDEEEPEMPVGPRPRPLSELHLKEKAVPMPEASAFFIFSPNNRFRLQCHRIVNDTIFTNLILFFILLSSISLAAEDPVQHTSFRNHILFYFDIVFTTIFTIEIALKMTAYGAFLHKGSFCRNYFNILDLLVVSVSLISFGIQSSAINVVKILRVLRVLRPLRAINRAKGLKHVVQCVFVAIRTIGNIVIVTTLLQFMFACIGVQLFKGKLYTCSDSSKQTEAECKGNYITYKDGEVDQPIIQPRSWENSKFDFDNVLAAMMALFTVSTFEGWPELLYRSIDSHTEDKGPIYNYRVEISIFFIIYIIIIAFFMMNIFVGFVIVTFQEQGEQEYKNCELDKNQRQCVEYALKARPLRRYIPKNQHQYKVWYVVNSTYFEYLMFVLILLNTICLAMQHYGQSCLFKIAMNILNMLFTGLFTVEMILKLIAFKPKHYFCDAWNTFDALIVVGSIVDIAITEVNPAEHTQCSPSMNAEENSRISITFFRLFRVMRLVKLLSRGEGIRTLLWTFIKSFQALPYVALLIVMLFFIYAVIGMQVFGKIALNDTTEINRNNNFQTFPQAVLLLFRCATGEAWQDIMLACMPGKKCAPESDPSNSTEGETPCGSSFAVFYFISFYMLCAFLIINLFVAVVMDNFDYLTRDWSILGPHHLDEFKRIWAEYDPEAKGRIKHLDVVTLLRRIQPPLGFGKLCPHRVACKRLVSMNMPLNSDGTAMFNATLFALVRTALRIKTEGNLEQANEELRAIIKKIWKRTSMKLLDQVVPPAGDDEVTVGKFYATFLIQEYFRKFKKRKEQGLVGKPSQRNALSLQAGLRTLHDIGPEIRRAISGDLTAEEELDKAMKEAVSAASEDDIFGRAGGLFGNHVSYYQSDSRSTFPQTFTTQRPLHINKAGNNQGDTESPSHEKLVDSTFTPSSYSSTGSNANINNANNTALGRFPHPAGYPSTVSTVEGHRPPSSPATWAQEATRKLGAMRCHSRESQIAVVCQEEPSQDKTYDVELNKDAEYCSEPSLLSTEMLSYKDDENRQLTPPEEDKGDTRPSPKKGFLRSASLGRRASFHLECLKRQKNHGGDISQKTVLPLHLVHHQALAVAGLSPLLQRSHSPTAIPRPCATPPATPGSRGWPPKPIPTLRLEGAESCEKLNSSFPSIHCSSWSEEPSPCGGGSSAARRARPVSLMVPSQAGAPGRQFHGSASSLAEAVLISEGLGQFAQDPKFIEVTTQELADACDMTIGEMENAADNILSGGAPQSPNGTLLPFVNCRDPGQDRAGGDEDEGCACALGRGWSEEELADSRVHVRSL

IC50 [4, 10]: 3.84 nM
Compound: COC(=O)C1=C(C)NC(C)=C(C(=O)OCCCCCCCc2cc(C)no2)C1c1cccc([N+](=O)[O-])c1 (centres unmarked) [Example 1, 3-[7-(3-Methylisoxazol-5-yl)heptyloxycarbonyl]-5-methoxycarbonyl-2,6-dimethyl-4-(3-nitrophenyl)-1,4-dihydropyridine]
angiotensin inhibitory activity (in words) [1]: very strong | Percent Inhibition (angiotensin inhibitory activity) ([1]; 0.0025 μg): 60% | Percent Inhibition (angiotensin inhibitory activity) ([1]; 0.01 μg/ml): 93% | anti-ulcer stress Activity ([2]; 50 mg/kg): 63% | anti-ulcer stressic activity (in words) [2]: very strong | LTD4 antagonistic activity (in words) [3]: very strong

IC50 [4, 10]: 5.13 nM
Compound: COC(=O)C1=C(C)NC(C)=C(C(=O)OCCCCCCCc2cc(C)no2)C1c1cccc(C(F)(F)F)c1 (centres unmarked) [Example 3, 3-[7-(3-Methylisoxazol-5-yl)heptyloxycarbonyl]-5-methoxycarbonyl-2,6-dimethyl-4-(3-trifluoromethylphenyl)-1,4-dihydropyridine]

IC50 [4, 10]: 6.24 nM
Compound: COC(=O)C1=C(C)NC(C)=C(C(=O)OCCCCCCn2nc(C)cc2C)C1c1cccc([N+](=O)[O-])c1 (centres unmarked) [Example 5, 3-[6-(3,5-Dimethylpyrazol-1-yl)hexyloxycarbonyl]-5-methoxycarbonyl-2,6-dimethyl-4-(3-nitrophenyl) -1,4-dihydropyridine]
Percent Inhibition (angiotensin inhibitory activity) ([1]; 0.001 μg): 58% | Percent Inhibition (angiotensin inhibitory activity) ([1]; 0.01 μg/ml): 95% | anti-inflammatory Activity ([5]; 40 mg/kg): 35% | anti-inflammatory activity (in words) ([5]; general pharmacological screening): very strong

relative potency as compared with Nifedipine ([4]; smooth muscle): 4.3 | IC50 ([4]; smooth muscle, read-out: IC50 as calcium antagonist in smooth muscle): 3.25 ± 0.33 nM
Compound: COC(=O)C1=C(C)NC(C)=C(C(=O)OCCCCCCCc2nc(C)cs2)C1c1cccc([N+](=O)[O-])c1 (centres unmarked) [Example 11, 3-[7-(4-Methylthiazol-2-yl)heptyloxycarbonyl]-5-methoxycarbonyl-2,6-dimethyl-4-(3-nitrophenyl)-1,4-dihydropyridine]
heart contractile force [6]: increase the heart contractile force; also recorded: increases cardia contractile force | positive ionotropic effect on the heart [6]: about 12% | activation at 0.00325 µM [6]: ~12% | heart rate change in SHR Rat [7]: without changing the heart rate | heart rate change [8]: without changing the heart rate; also recorded: no effect on the heart

IC50 [4, 10]: 6.25 nM
Compound: COC(=O)C1=C(C)NC(C)=C(C(=O)OCCCCCCCc2nc(C)cs2)C1c1cccc(Cl)c1 (centres unmarked) [Example 15, 3-[7-(4-Methylthiazol-2-yl)heptyloxycarbonyl]-5-methoxycarbonyl-2,6-dimethyl-4-(3-chlorophenyl)-1,4-dihydropyridine]
angiotensin inhibitory activity (in words) [1]: very strong | Percent Inhibition (angiotensin inhibitory activity) ([1]; 0.1 μg/ml): 64% | anti-ulcer stress Activity ([2]; 40 mg/kg): 63% | anti-ulcer stressic activity (in words) [2]: very strong | LTD4 antagonistic activity (in words) [3]: very strong

IC50 [4, 10]: 48.1 nM
Compound: COC(=O)C1=C(C)NC(C)=C(C(=O)OCCCCCCCc2nc(C)cs2)C1c1cccc(Cl)c1Cl (centres unmarked) [Example 17, 3-[7-(4-Methylthiazol-2-yl)heptyloxycarbonyl]-5-methoxycarbonyl-2,6-dimethyl-4-(2,3-dichlorophenyl)-1,4-dihydropyridine]

IC50 [4, 10]: 15.4 nM
Compound: COC(=O)C1=C(C)NC(C)=C(C(=O)OCCCCCC[S+]([O-])c2nc(C)cs2)C1c1cccc([N+](=O)[O-])c1 (centres unmarked) [Example 20, 3-[6-(4-Methylthiazol-2-yl)sulfinylhexyloxycarbonyl]-5-methoxycarbonyl-2,6-dimethyl-4-(3-nitrophenyl)-1,4-dihydropyridine]

Continued, molecule first:

Compound: C[C@H](CS)C(=O)N1CCC[C@H]1C(=O)O [Captopril, reference compound]
Percent Inhibition (angiotensin inhibitory activity) ([1]; 0.05 μg/ml): 69%

Compound: COC(=O)C1=C(C)NC(C)=C(C(=O)OCCCCCCCc2nc(C)cs2)C1c1cccc(C(F)(F)F)c1 (centres unmarked) [Example 13, 3-[7-(4-Methylthiazol-2-yl)heptyloxycarbonyl]-5-methoxycarbonyl-2,6-dimethyl-4-(3-trifluoromethylphenyl)-1,4-dihydropyridine]
anti-inflammatory Activity ([5]; 25 mg/kg): 43%

Compound: COC(=O)C1=C(C)NC(C)=C(C(=O)OCCCCCCSc2nc(C)cs2)C1c1cccc([N+](=O)[O-])c1 (centres unmarked) [Example 18, 3-[6-(4-Methylthiazol-2-yl)thiohexyloxycarbonyl]-5-methoxycarbonyl-2,6-dimethyl-4-(3-nitrophenyl)-1,4-dihydropyridine]
IC50 [4, 10]: 5.48 nM

Compound: COC(=O)C1=C(C)NC(C)=C(C(=O)OCCCCCCS(=O)(=O)c2nc(C)cs2)C1c1cccc([N+](=O)[O-])c1 (centres unmarked) [Example 19, 3-[6-(4-Methylthiazol-2-yl)sulfonylhexyloxycarbonyl]-5-methoxycarbonyl-2,6-dimethyl-4-(3-nitrophenyl)-1,4-dihydropyridine]
heart contractile force [6]: increase the heart contractile force | positive ionotropic effect on the heart [6]: about 22% | activation at 0.00325 µM [6]: 25% | heart rate change [8]: without changing the heart rate | IC50 [4, 10]: 5.81 nM | relative potency as compared with Nifedipine ([4]; smooth muscle): 2.5

Compound: CCOC(=O)C1=C(C)NC(C)=C(C(=O)OC)C1c1cccc(Cl)c1Cl (centres unmarked) [Felodipine, 3-ethoxycarbonyl-5-methoxycarbonyl-4-(2,3-dichlorophenyl)-2,6-dimethyl-1,4-dihydropyridine]
effect on heart rate (tachycardia) [9]: creates tachycardia

Compound: C[C@]12CCC(=O)C=C1CC[C@@H]1[C@@H]2[C@@H](O)C[C@@]2(C)[C@H]1CC[C@]2(O)C(=O)CO [Hydrocortisone, reference compound]
anti-inflammatory Activity ([5]; 25 mg/kg): 32%

Compound: CCCCC1C(=O)N(c2ccccc2)N(c2ccccc2)C1=O [Phenylbutazone, reference compound]
anti-inflammatory Activity ([5]; 50 mg/kg): 33%

Compound: CN1CCN(CC(=O)N2c3ccccc3C(=O)Nc3cccnc32)CC1 [Pirenzepine, reference compound]
anti-ulcer stress Activity ([2]; 50 mg/kg): 75%
